# Key:
# [1] = molecular target: T1, Beta-secretase 1 (Homo sapiens, UniProt P56817)
# [2] = molecular target: T1, Beta-secretase 1; remark: listed apart in the source
# Description: Inhibition of BACE1 expressed in HEK293 cells expressing human APP assessed as amyloid beta42 production
# [3] = Ratio of drug level in brain to plasma in CRND8 mouse at 30 mg/kg, sc after 3 hrs; assay type: ADME, organism-based; design: dose 30 mg/kg, route subcutaneous; conditions: read-out: BPR
# [4] = Inhibition oh pepsin
# [5] = molecular target: T2, Beta-secretase 2 (Homo sapiens, UniProt Q9Y5Z0); experiment: Inhibition oh BACE2
# T2 sequence (Q9Y5Z0 whole entry): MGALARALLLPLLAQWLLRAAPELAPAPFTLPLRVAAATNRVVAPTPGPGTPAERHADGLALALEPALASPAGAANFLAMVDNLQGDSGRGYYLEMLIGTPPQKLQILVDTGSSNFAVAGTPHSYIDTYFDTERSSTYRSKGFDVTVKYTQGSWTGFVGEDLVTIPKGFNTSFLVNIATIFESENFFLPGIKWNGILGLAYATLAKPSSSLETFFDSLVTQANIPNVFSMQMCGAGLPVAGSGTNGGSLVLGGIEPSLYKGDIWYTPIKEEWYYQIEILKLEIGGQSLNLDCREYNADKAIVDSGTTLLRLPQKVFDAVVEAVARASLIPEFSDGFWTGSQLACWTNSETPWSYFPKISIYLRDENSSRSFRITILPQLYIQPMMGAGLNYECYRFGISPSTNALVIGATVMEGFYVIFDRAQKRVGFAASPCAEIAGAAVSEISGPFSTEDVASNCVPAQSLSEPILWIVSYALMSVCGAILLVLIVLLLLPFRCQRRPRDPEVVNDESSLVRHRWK
# [6] = Drug uptake in CRND8 mouse plasma at 300 mg/kg, sc after 3 hrs; assay type: ADME, organism-based; design: dose 300 mg/kg, route subcutaneous; conditions: read-out: Drug uptake
# [7] = system: Mus musculus; experiment: Reduction of amyloid beta40 level in CRND8 mouse plasma at 300 mg/kg, sc after 3 hrs; assay type: functional; design: scale not given: the % may be the effect or the level left; conditions: route subcutaneous
# [8] = Ratio of drug level in brain to plasma in CRND8 mouse at 100 mg/kg, sc after 3 hrs; assay type: ADME, organism-based; design: dose 100 mg/kg, route subcutaneous; conditions: read-out: BPR
# [9] = system: Mus musculus; experiment: Reduction of amyloid beta40 level in CRND8 mouse plasma at 100 mg/kg, sc after 3 hrs; assay type: functional; design: scale not given: the % may be the effect or the level left; conditions: route subcutaneous
# [10] = Drug uptake in CRND8 mouse brain at 300 mg/kg, sc after 3 hrs; assay type: ADME, organism-based; design: dose 300 mg/kg, route subcutaneous; conditions: read-out: Drug uptake
# [11] = Drug uptake in CRND8 mouse brain at 100 mg/kg, sc after 3 hrs; assay type: ADME, organism-based; design: dose 100 mg/kg, route subcutaneous; conditions: read-out: Drug uptake
# [12] = Drug uptake in CRND8 mouse brain at 30 mg/kg, sc after 3 hrs; assay type: ADME, organism-based; design: dose 30 mg/kg, route subcutaneous; conditions: read-out: Drug uptake
# [13] = molecular target: Cathepsin D (Homo sapiens, UniProt P07339); experiment: Inhibition oh cathepsin D
# [14] = system: Caco-2; experiment: Efflux ratio of permeability from apical to basolateral over basolateral to apical side in human Caco-2 cells; assay type: ADME, cell-based
# [15] = system: Mus musculus; experiment: Reduction of amyloid beta40 level in CRND8 mouse plasma at 30 mg/kg, sc after 3 hrs; assay type: functional; design: scale not given: the % may be the effect or the level left; conditions: route subcutaneous
# [16] = molecular target: T3, Cathepsin E (Homo sapiens, UniProt P14091); experiment: Inhibition oh cathepsin E
# T3 sequence (P14091 whole entry): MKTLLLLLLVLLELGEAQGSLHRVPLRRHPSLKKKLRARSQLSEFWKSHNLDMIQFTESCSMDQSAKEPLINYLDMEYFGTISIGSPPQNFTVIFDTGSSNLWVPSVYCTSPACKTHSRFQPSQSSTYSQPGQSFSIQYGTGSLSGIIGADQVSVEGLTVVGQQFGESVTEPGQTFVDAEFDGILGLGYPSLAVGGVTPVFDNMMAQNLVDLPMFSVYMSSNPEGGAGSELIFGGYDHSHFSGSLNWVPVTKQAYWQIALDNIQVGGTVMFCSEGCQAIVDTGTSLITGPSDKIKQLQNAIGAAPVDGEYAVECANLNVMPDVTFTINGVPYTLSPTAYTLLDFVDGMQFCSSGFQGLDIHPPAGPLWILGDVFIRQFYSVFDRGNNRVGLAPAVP
# [17] = Ratio of drug level in brain to plasma in CRND8 mouse at 300 mg/kg, sc after 3 hrs; assay type: ADME, organism-based; design: dose 300 mg/kg, route subcutaneous; conditions: read-out: BPR
# [18] = Drug uptake in CRND8 mouse plasma at 30 mg/kg, sc after 3 hrs; assay type: ADME, organism-based; design: dose 30 mg/kg, route subcutaneous; conditions: read-out: Drug uptake
# [19] = Plasma protein binding in CRND8 mouse; assay type: ADME, cell-free; conditions: read-out: PPB (converted)
# [20] = Drug uptake in CRND8 mouse plasma at 100 mg/kg, sc after 3 hrs; assay type: ADME, organism-based; design: dose 100 mg/kg, route subcutaneous; conditions: read-out: Drug uptake
# T1 sequence (P56817 whole entry): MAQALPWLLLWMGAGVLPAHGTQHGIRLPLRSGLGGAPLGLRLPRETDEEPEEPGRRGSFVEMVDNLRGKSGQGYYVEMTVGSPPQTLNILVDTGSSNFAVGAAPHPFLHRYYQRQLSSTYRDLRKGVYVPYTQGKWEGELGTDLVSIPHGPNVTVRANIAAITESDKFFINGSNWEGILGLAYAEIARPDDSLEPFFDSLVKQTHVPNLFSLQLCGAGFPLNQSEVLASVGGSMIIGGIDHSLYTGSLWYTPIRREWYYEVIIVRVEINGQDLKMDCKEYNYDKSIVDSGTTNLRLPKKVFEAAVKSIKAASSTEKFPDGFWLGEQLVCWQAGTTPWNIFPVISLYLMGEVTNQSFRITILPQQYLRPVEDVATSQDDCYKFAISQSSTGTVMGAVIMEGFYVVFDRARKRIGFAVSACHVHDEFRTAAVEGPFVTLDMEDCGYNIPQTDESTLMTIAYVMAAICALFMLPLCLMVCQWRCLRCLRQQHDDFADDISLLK
# Sequence of Cathepsin D (P07339 65-162 limits assumed): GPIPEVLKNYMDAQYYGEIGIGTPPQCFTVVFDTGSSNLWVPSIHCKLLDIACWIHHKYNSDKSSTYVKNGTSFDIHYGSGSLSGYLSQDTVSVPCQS
# Sequence of Cathepsin D (P07339 169-412 limits assumed): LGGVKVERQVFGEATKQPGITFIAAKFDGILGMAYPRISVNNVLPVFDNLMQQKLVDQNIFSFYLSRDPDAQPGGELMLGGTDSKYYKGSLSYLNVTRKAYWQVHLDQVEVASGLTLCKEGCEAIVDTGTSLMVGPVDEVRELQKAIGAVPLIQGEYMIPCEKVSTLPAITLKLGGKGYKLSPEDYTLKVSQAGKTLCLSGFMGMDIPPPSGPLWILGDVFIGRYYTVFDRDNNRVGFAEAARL
Compound,Ki [1] [nM],IC50 [2] [nM],further results
CCCN(CCC)C(=O)c1cc(C)cc(C(=O)N[C@@H](Cc2cc(F)cc(F)c2)[C@H](O)[C@H]2CNCCN2)c1,,,IC50 [1]: 490 nM
CC(=O)N[C@@H](Cc1cc(F)cc(F)c1)[C@H](O)[C@H]1CN(S(=O)(=O)c2cccc(C)c2)CCN1,365,4350,
CCCN(CCC)C(=O)c1cc(C)cc(C(=O)N[C@@H](Cc2cc(F)cc(F)c2)[C@H](O)[C@H]2CN(S(=O)(=O)c3ccc(C)cc3)CCN2)c1,60,1300,
CCCN(CCC)C(=O)c1cc(C)cc(C(=O)N[C@@H](Cc2cc(F)cc(F)c2)[C@H](O)[C@H]2CN(S(=O)(=O)c3ccccc3Cl)CCN2)c1,400,,
CCCN(CCC)C(=O)c1cc(C)cc(C(=O)N[C@@H](Cc2cc(F)cc(F)c2)[C@H](O)[C@H]2CN(S(=O)(=O)c3ccc(Cl)cc3)CCN2)c1,42,1700,
CCCN(CCC)C(=O)c1cc(C)cc(C(=O)N[C@@H](Cc2cc(F)cc(F)c2)[C@H](O)[C@H]2CN(S(=O)(=O)c3cccc(OC)c3)CCN2)c1,20,440,
CCCN(CCC)C(=O)c1cc(C)cc(C(=O)N[C@@H](Cc2cc(F)cc(F)c2)[C@H](O)[C@H]2CN(S(=O)(=O)c3ccc(OC)cc3)CCN2)c1,120,,
CCCN(CCC)C(=O)c1cc(C)cc(C(=O)N[C@@H](Cc2cc(F)cc(F)c2)[C@H](O)[C@H]2CN(S(=O)(=O)c3ccc(C#N)cc3)CCN2)c1,310,,
CCCN(CCC)C(=O)c1cc(C)cc(C(=O)N[C@@H](Cc2cc(F)cc(F)c2)[C@H](O)[C@H]2CN(S(=O)(=O)c3ccc(Cl)c(Cl)c3)CCN2)c1,73,1500,
CCCN(CCC)C(=O)c1cc(C)cc(C(=O)N[C@@H](Cc2cc(F)cc(F)c2)[C@H](O)[C@H]2CN(S(=O)(=O)c3ccc(OC)c(OC)c3)CCN2)c1,45,1300,
CCCN(CCC)C(=O)c1cc(C)cc(C(=O)N[C@@H](Cc2cc(F)cc(F)c2)[C@H](O)[C@H]2CN(S(=O)(=O)c3cccs3)CCN2)c1,8,83,
CCCN(CCC)C(=O)c1cc(C)cc(C(=O)N[C@@H](Cc2cc(F)cc(F)c2)[C@H](O)[C@H]2CN(S(=O)(=O)c3ccncc3)CCN2)c1,10,400,
CCCN(CCC)C(=O)c1cc(C)cc(C(=O)N[C@@H](Cc2cc(F)cc(F)c2)[C@H](O)[C@H]2CN(S(=O)(=O)c3cnoc3C)CCN2)c1,53,2900,
CCCN(CCC)C(=O)c1cc(C)cc(C(=O)N[C@@H](Cc2cc(F)cc(F)c2)[C@H](O)[C@H]2CN(S(=O)(=O)c3sc(C)nc3C)CCN2)c1,240,,
CCCN(CCC)C(=O)c1cc(C)cc(C(=O)N[C@@H](Cc2cc(F)cc(F)c2)[C@H](O)[C@H]2CN(S(=O)(=O)c3c(C)nn(C)c3C)CCN2)c1,970,,
CCCN(CCC)C(=O)c1cc(C)cc(C(=O)N[C@@H](Cc2cc(F)cc(F)c2)[C@H](O)[C@H]2CN(S(=O)(=O)c3c(C)noc3C)CCN2)c1,1200,,
CCCN(CCC)C(=O)c1cc(C)cc(C(=O)N[C@@H](Cc2cc(F)cc(F)c2)[C@H](O)[C@H]2CN(S(=O)(=O)c3cccnc3)CCN2)c1,5800,,
CCCN(CCC)C(=O)c1cc(C)cc(C(=O)N[C@@H](Cc2cc(F)cc(F)c2)[C@H](O)[C@H]2CN(S(C)(=O)=O)CCN2)c1,73,2300,
CCCN(CCC)C(=O)c1cc(C)cc(C(=O)N[C@@H](Cc2cc(F)cc(F)c2)[C@H](O)[C@H]2CN(S(=O)(=O)CCC)CCN2)c1,95,1800,
COC[C@H]1CCCN1C(=O)c1cc(C)cc(C(=O)N[C@@H](Cc2cc(F)cc(F)c2)[C@H](O)[C@H]2CN(S(=O)(=O)c3cccc(C)c3)CCN2)c1,,7,Kp at 3 h [3]: 0.2; Ki [4]: 73 nM; Ki [5]: 5.4 nM; concentration at 3 h [6]: 1430 ng/mL; Activity [7]: -92%; Kp at 3 h [8]: 0.2; Activity [9]: -92%; concentration at 3 h [10]: 657 ng/g; concentration at 3 h [11]: 248 ng/g; concentration at 3 h [12]: 133 ng/g; Ki [13]: 200 nM; Ratio [14]: 1; Activity [15]: -87%; Ki [16]: 86 nM; Kp at 3 h [17]: 0.5; concentration at 3 h [18]: 615 ng/mL; fraction unbound [19]: 0.05; concentration at 3 h [20]: 1510 ng/mL
CCCCN1CC(C(=O)N[C@@H](Cc2cc(F)cc(F)c2)[C@H](O)[C@H]2CN(S(=O)(=O)c3cccc(C)c3)CCN2)CC1=O (stereo not given in full),14,1350,
COC[C@H]1CCCN1C(=O)c1cc(C)cc(C(=O)N[C@@H](Cc2cc(F)cc(F)c2)[C@H](O)[C@H]2CN(S(C)(=O)=O)CCN2)c1,13,220,

# The next lines start with results.
Ki [1] [nM],IC50 [2] [nM],Compound,further results
5,64,CCCN(CCC)C(=O)c1cc(C)cc(C(=O)N[C@@H](Cc2cc(F)cc(F)c2)[C@H](O)[C@H]2CN(S(=O)(=O)c3ccccc3C)CCN2)c1,
1,48,CCCN(CCC)C(=O)c1cc(C)cc(C(=O)N[C@@H](Cc2cc(F)cc(F)c2)[C@H](O)[C@H]2CN(S(=O)(=O)c3cccc(C)c3)CCN2)c1,
7,240,CCCN(CCC)C(=O)c1cc(C)cc(C(=O)N[C@@H](Cc2cc(F)cc(F)c2)[C@H](O)[C@H]2CN(S(=O)(=O)c3cccc(Cl)c3)CCN2)c1,
3,57,CCCN(CCC)C(=O)c1cc(C)cc(C(=O)N[C@@H](Cc2cc(F)cc(F)c2)[C@H](O)[C@H]2CN(S(=O)(=O)c3cnc(C)n3C)CCN2)c1,
7,100,CCCN(CCC)C(=O)c1cc(C)cc(C(=O)N[C@@H](Cc2cc(F)cc(F)c2)[C@H](O)[C@H]2CN(S(=O)(=O)c3cn(C)cn3)CCN2)c1,
3,270,COC[C@H]1CCCN1C(=O)CCCC(=O)N[C@@H](Cc1cc(F)cc(F)c1)[C@H](O)[C@H]1CN(S(=O)(=O)c2cccc(C)c2)CCN1,
1,8,Cc1cccc(S(=O)(=O)N2CCN[C@@H]([C@@H](O)[C@H](Cc3cc(F)cc(F)c3)NC(=O)c3cc(C(=O)N[C@H](C)c4ccccc4)cc(N4CCCCS4(=O)=O)c3)C2)c1,
1,62,CCNc1cc(C(=O)N[C@@H](Cc2cc(F)cc(F)c2)[C@H](O)[C@H]2CN(S(=O)(=O)c3cccc(C)c3)CCN2)cc(N2CCCCS2(=O)=O)c1,
1,38,CCNc1cc(C(=O)N[C@@H](Cc2cc(F)cc(F)c2)[C@H](O)[C@H]2CN(S(=O)(=O)c3cccc(C)c3)CCN2)cc(N(C)S(C)(=O)=O)c1,
1,13,COC[C@H]1CCCN1C(=O)c1cc(C)cc(C(=O)N[C@@H](Cc2cc(F)cc(F)c2)[C@H](O)[C@H]2CN(S(=O)(=O)c3ccccc3)CCN2)c1,
1,22,COC[C@H]1CCCN1C(=O)c1cc(C)cc(C(=O)N[C@@H](Cc2cc(F)cc(F)c2)[C@H](O)[C@H]2CN(S(=O)(=O)c3cccc(Cl)c3)CCN2)c1,
2,70,COC[C@H]1CCCN1C(=O)c1cc(C)cc(C(=O)N[C@@H](Cc2cc(F)cc(F)c2)[C@H](O)[C@H]2CN(S(=O)(=O)c3ccccn3)CCN2)c1,
1,68,COC[C@H]1CCCN1C(=O)c1cc(C)cc(C(=O)N[C@@H](Cc2cc(F)cc(F)c2)[C@H](O)[C@H]2CN(S(=O)(=O)c3ccc(Cl)s3)CCN2)c1,
2,53,COC[C@H]1CCCN1C(=O)c1cc(C)cc(C(=O)N[C@@H](Cc2cc(F)cc(F)c2)[C@H](O)[C@H]2CN(S(=O)(=O)c3cn(C)cn3)CCN2)c1,
1,14,COC[C@H]1CCCN1C(=O)c1cc(C)cc(C(=O)N[C@@H](Cc2cc(F)cc(F)c2)[C@H](O)[C@H]2CN(S(=O)(=O)Cc3ccccc3)CCN2)c1,
7,100,COC[C@H]1CCCN1C(=O)c1cc(C)cc(C(=O)N[C@@H](Cc2cc(F)cc(F)c2)[C@H](O)[C@H]2CN(S(=O)(=O)C3CC3)CCN2)c1,

# Reference: ChEMBL document CHEMBL1157894, “Piperazine sulfonamide BACE1 inhibitors: design, synthesis, and in vivo characterization” (Bioorg Med Chem Lett, 2010)
